# Source: PMC5218480 (PLoS ONE, 2017)
# Tested on: MV-4-11 cells
# Assay: Gene expression microarray analysis (Affymetrix PrimeView) and GSEA
# Assay type: cell-based, human
# Design: RFU PODN (11730768_x_at) / Fold change /veh PODN (11730768_x_at) / RFU LINC00158 (11744669_a_at) / Fold change /veh LINC00158 (11744669_a_at) / RFU DUSP10 (11751237_a_at) / Fold change /veh DUSP10 (11751237_a_at) / RFU ID3 (11757404_x_at) / Fold change /veh ID3 (11757404_x_at) / RFU PLEKHG5 (11737974_s_at) / Fold change /veh PLEKHG5 (11737974_s_at) / RFU LRRC4B (11730491_at) / Fold change /veh LRRC4B (11730491_at) / RFU GIMAP4 (11747438_a_at) / Fold change /veh GIMAP4 (11747438_a_at) / RFU KRT8 (11758183_x_at) / Fold change /veh KRT8 (11758183_x_at) / RFU CNN1 (11734310_a_at) / Fold change /veh CNN1 (11734310_a_at) / RFU VPS37D (11726825_at) / Fold change /veh VPS37D (11726825_at) / RFU C10orf10 (11716522_x_at) / Fold change /veh C10orf10 (11716522_x_at) / RFU KIR2DL2 /// KIR2DL4 /// KIR2DL5A /// KIR2DL5B /// KIR2DS1 /// KIR2DS2 /// KIR2DS3 /// KIR2DS4 /// KIR3DL3 /// KIR3DL3 /// KIR3DS1 (11738374_at) / Fold change /veh KIR2DL2 /// KIR2DL4 /// KIR2DL5A /// KIR2DL5B /// KIR2DS1 /// KIR2DS2 /// KIR2DS3 /// KIR2DS4 /// KIR3DL3 /// KIR3DL3 /// KIR3DS1 (11738374_at) / RFU C1QL1 (11718748_at) / Fold change /veh C1QL1 (11718748_at) / RFU TMPRSS4 (11747572_a_at) / Fold change /veh TMPRSS4 (11747572_a_at) / RFU HAMP (11756126_x_at) / Fold change /veh HAMP (11756126_x_at) / RFU RNFT2 (11725882_a_at) / Fold change /veh RNFT2 (11725882_a_at) / RFU NR4A2 (11747474_a_at) / Fold change /veh NR4A2 (11747474_a_at) / RFU ABCC12 (11746883_a_at) / Fold change /veh ABCC12 (11746883_a_at) / RFU TMEM136 (11760407_x_at) / Fold change /veh TMEM136 (11760407_x_at) / RFU CLDN22 /// WWC2 (11732394_at) / Fold change /veh CLDN22 /// WWC2 (11732394_at) / RFU HLA-DPB1 (11760878_x_at) / Fold change /veh HLA-DPB1 (11760878_x_at) / RFU SPINT1 (11716480_a_at) / Fold change /veh SPINT1 (11716480_a_at) / RFU GAP43 (11754022_s_at) / Fold change /veh GAP43 (11754022_s_at) / RFU A4GNT (11735810_at) / Fold change /veh A4GNT (11735810_at) / RFU PRB3 (11715151_x_at) / Fold change /veh PRB3 (11715151_x_at) / RFU TUBB4B (11761932_at) / Fold change /veh TUBB4B (11761932_at) / RFU CAPN14 (11732068_a_at) / Fold change /veh CAPN14 (11732068_a_at) / RFU TMCC2 (11721928_a_at) / Fold change /veh TMCC2 (11721928_a_at) / RFU IRGQ (11745062_a_at) / Fold change /veh IRGQ (11745062_a_at) / RFU FAM174B (11720279_a_at) / Fold change /veh FAM174B (11720279_a_at) / RFU TMPRSS4 (11748680_a_at) / Fold change /veh TMPRSS4 (11748680_a_at) / RFU FAM212B (11763350_a_at) / Fold change /veh FAM212B (11763350_a_at) / RFU PLEKHG5 (11743358_a_at) / Fold change /veh PLEKHG5 (11743358_a_at) / RFU ZSCAN30 (11745921_a_at) / Fold change /veh ZSCAN30 (11745921_a_at) / RFU CMKLR1 (11741424_a_at) / Fold change /veh CMKLR1 (11741424_a_at) / RFU LOC101060620 /// MAPK8IP1 (11723275_at) / Fold change /veh LOC101060620 /// MAPK8IP1 (11723275_at) / RFU SPTSSB (11747773_x_at) / Fold change /veh SPTSSB (11747773_x_at) / RFU PRSS12 (11739890_at) / Fold change /veh PRSS12 (11739890_at) / RFU BIN1 (11741810_x_at) / Fold change /veh BIN1 (11741810_x_at) / RFU WNT11 (11732464_a_at) / Fold change /veh WNT11 (11732464_a_at) / RFU C10orf10 (11716521_a_at) / Fold change /veh C10orf10 (11716521_a_at) / RFU C5orf56 (11738089_at) / Fold change /veh C5orf56 (11738089_at) / RFU CYB561 (11721691_x_at) / Fold change /veh CYB561 (11721691_x_at) / RFU ANKRD19P (11752326_a_at) / Fold change /veh ANKRD19P (11752326_a_at) / RFU OR2T12 /// OR2T33 /// OR2T8 (11738714_s_at) / Fold change /veh OR2T12 /// OR2T33 /// OR2T8 (11738714_s_at) / RFU VCAN (11748164_a_at) / Fold change /veh VCAN (11748164_a_at) / RFU JSRP1 (11732532_at) / Fold change /veh JSRP1 (11732532_at) / RFU KRTAP10-11 (11738290_x_at) / Fold change /veh KRTAP10-11 (11738290_x_at) / RFU MYO3A (11730013_a_at) / Fold change /veh MYO3A (11730013_a_at) / RFU EBF3 (11725865_a_at) / Fold change /veh EBF3 (11725865_a_at) / RFU CAMK2N1 (11719241_x_at) / Fold change /veh CAMK2N1 (11719241_x_at) / RFU C5orf56 (11738088_a_at) / Fold change /veh C5orf56 (11738088_a_at) / RFU OLFML3 (11715873_a_at) / Fold change /veh OLFML3 (11715873_a_at) / RFU LOC100653217 /// NTM (11731650_a_at) / Fold change /veh LOC100653217 /// NTM (11731650_a_at) / RFU MAPK11 (11762145_a_at) / Fold change /veh MAPK11 (11762145_a_at) / RFU FIZ1 (11724087_x_at) / Fold change /veh FIZ1 (11724087_x_at) / RFU OASL (11726364_x_at) / Fold change /veh OASL (11726364_x_at) / RFU SOX15 (11748057_x_at) / Fold change /veh SOX15 (11748057_x_at) / RFU CD79A (11719716_a_at) / Fold change /veh CD79A (11719716_a_at) / RFU HIST1H1D (11736915_at) / Fold change /veh HIST1H1D (11736915_at) / RFU CASKIN2 (11723855_a_at) / Fold change /veh CASKIN2 (11723855_a_at) / RFU LOC730098 (11760151_x_at) / Fold change /veh LOC730098 (11760151_x_at) / RFU OR4N2 (11742367_at) / Fold change /veh OR4N2 (11742367_at) / RFU PRRT2 (11749266_a_at) / Fold change /veh PRRT2 (11749266_a_at) / RFU SNX32 (11753110_a_at) / Fold change /veh SNX32 (11753110_a_at) / RFU CDHR5 (11726645_a_at) / Fold change /veh CDHR5 (11726645_a_at) / RFU RCAN1 (11760418_a_at) / Fold change /veh RCAN1 (11760418_a_at) / RFU FAM167A (11723789_a_at) / Fold change /veh FAM167A (11723789_a_at) / RFU FAM26E (11764081_at) / Fold change /veh FAM26E (11764081_at) / RFU ISYNA1 (11749810_s_at) / Fold change /veh ISYNA1 (11749810_s_at) / RFU ACY1 (11761880_at) / Fold change /veh ACY1 (11761880_at) / RFU 11764098_at / Fold change /veh 11764098_at / RFU SAMD14 (11745864_x_at) / Fold change /veh SAMD14 (11745864_x_at) / RFU NPB (11741838_a_at) / Fold change /veh NPB (11741838_a_at) / RFU TMPRSS6 (11731388_a_at) / Fold change /veh TMPRSS6 (11731388_a_at) / RFU KRTAP10-2 (11738614_at) / Fold change /veh KRTAP10-2 (11738614_at) / RFU ARHGAP8 /// PRR5-ARHGAP8 (11727945_x_at) / Fold change /veh ARHGAP8 /// PRR5-ARHGAP8 (11727945_x_at) / RFU KRTAP5-7 /// NADSYN1 (11734609_at) / Fold change /veh KRTAP5-7 /// NADSYN1 (11734609_at) / RFU RASL12 (11751679_a_at) / Fold change /veh RASL12 (11751679_a_at) / RFU CDKN2B (11736163_a_at) / Fold change /veh CDKN2B (11736163_a_at) / RFU PRF1 (11729649_at) / Fold change /veh PRF1 (11729649_at) / RFU, ZNF638 /// ZNF638-IT1 / Fold change vs veh, ZNF638 /// ZNF638-IT1 / RFU, PANK3 / Fold change vs veh, PANK3 / RFU, SH3YL1 / Fold change vs veh, SH3YL1 / RFU, ZEB2 / Fold change vs veh, ZEB2 / RFU, NRIP1 / Fold change vs veh, NRIP1 / RFU, PTTG1IP / Fold change vs veh, PTTG1IP / RFU, CAPN2 / Fold change vs veh, CAPN2 / RFU, MED14 / Fold change vs veh, MED14 / RFU, SNORA58 / Fold change vs veh, SNORA58 / RFU, C1orf63 / Fold change vs veh, C1orf63 / RFU, LRRFIP1 / Fold change vs veh, LRRFIP1 / RFU, NDUFAF7 / Fold change vs veh, NDUFAF7 / RFU, SLC12A2 / Fold change vs veh, SLC12A2 / RFU, IBTK / Fold change vs veh, IBTK / RFU, ESF1 / Fold change vs veh, ESF1 / Fold change vs veh, TMEM50B / RFU, TAOK1 / Fold change vs veh, TAOK1 / RFU, ACBD3 / Fold change vs veh, ACBD3 / RFU, TMA16 / Fold change vs veh, TMA16 / RFU, RWDD3 / Fold change vs veh, RWDD3 / RFU, BCAT1 / Fold change vs veh, BCAT1 / RFU, EDEM3 / Fold change vs veh, EDEM3 / RFU, TMEM33 / Fold change vs veh, TMEM33 / RFU, WDR75 / Fold change vs veh, WDR75 / RFU, AHCTF1 / Fold change vs veh, AHCTF1 / RFU, TFRC / Fold change vs veh, TFRC / RFU, ZDHHC17 / Fold change vs veh, ZDHHC17 / RFU, NOM1 / Fold change vs veh, NOM1 / RFU, ARL8B / Fold change vs veh, ARL8B / RFU, ZBTB11 / Fold change vs veh, ZBTB11 / RFU, TAMM41 / Fold change vs veh, TAMM41 / RFU, KIAA1704 /// LOC100996395 / Fold change vs veh, KIAA1704 /// LOC100996395 / RFU, ING1 / Fold change vs veh, ING1 / RFU, TRMT61B / Fold change vs veh, TRMT61B / RFU, FUBP3 / Fold change vs veh, FUBP3 / RFU, TP53 / Fold change vs veh, TP53 / RFU, TNKS2 / Fold change vs veh, TNKS2 / RFU, ZFP14 / Fold change vs veh, ZFP14 / RFU, ACTR2 / Fold change vs veh, ACTR2 / RFU, PPP3R1 / Fold change vs veh, PPP3R1 / RFU, PIK3R1 / Fold change vs veh, PIK3R1 / RFU, HNRNPA1 / Fold change vs veh, HNRNPA1 / RFU, RNF170 / Fold change vs veh, RNF170 / RFU, ZNF28 / Fold change vs veh, ZNF28 / RFU, RNGTT / Fold change vs veh, RNGTT / RFU, OGT / Fold change vs veh, OGT / RFU, BRD1 / Fold change vs veh, BRD1 / RFU, MARS / Fold change vs veh, MARS / RFU, ZNF655 / Fold change vs veh, ZNF655 / RFU, FAHD1 / Fold change vs veh, FAHD1 / RFU, BDP1 / Fold change vs veh, BDP1 / RFU, LRRCC1 / Fold change vs veh, LRRCC1 / RFU, ARID1A / Fold change vs veh, ARID1A / RFU, ZNF146 / Fold change vs veh, ZNF146 / RFU, ZNF330 / Fold change vs veh, ZNF330 / RFU, GPN3 / Fold change vs veh, GPN3 / RFU, C9orf123 / Fold change vs veh, C9orf123 / RFU, N4BP2L2 / Fold change vs veh, N4BP2L2 / RFU, ARFIP1 / Fold change vs veh, ARFIP1 / RFU, FAM179B / Fold change vs veh, FAM179B / RFU, BCL10 / Fold change vs veh, BCL10 / RFU, UHRF1BP1L / Fold change vs veh, UHRF1BP1L / RFU, BET1 / Fold change vs veh, BET1 / RFU, CNOT2 / Fold change vs veh, CNOT2 / RFU, ZNF268 / Fold change vs veh, ZNF268 / Fold change vs veh, ZNF507 / RFU, DGCR2 / Fold change vs veh, DGCR2 / RFU, WDSUB1 / Fold change vs veh, WDSUB1 / Fold change vs veh, HSP90B1 /// MIR3652 / RFU, ADSS / Fold change vs veh, ADSS / RFU, GK / Fold change vs veh, GK / RFU, ZNF148 / Fold change vs veh, ZNF148 / RFU, TAF9 / Fold change vs veh, TAF9 / RFU, SLC1A5 / Fold change vs veh, SLC1A5 / RFU, SLMO2 / Fold change vs veh, SLMO2 / RFU, ABCC4 / Fold change vs veh, ABCC4 / RFU, LOC101060439 /// RAP1B / Fold change vs veh, LOC101060439 /// RAP1B / RFU, RFX7 / Fold change vs veh, RFX7 / RFU, GTPBP10 / Fold change vs veh, GTPBP10 / RFU, CNEP1R1 / Fold change vs veh, CNEP1R1 / RFU, BIVM-ERCC5 /// ERCC5 / Fold change vs veh, BIVM-ERCC5 /// ERCC5 / RFU, ILF3 / Fold change vs veh, ILF3 / RFU 11762660_at / Fold change /veh 11762660_at / RFU VCAN (11757783_s_at) / Fold change /veh VCAN (11757783_s_at) / RFU DDX43 (11728927_at) / Fold change /veh DDX43 (11728927_at) / RFU KRT8 (11758188_x_at) / Fold change /veh KRT8 (11758188_x_at) / RFU NKD1 (11759106_at) / Fold change /veh NKD1 (11759106_at) / RFU SRD5A1 (11742802_a_at) / Fold change /veh SRD5A1 (11742802_a_at) / RFU TPSAB1 /// TPSB2 (11721975_s_at) / Fold change /veh TPSAB1 /// TPSB2 (11721975_s_at) / RFU GSTM3 (11746129_a_at) / Fold change /veh GSTM3 (11746129_a_at) / RFU IL23R (11737362_x_at) / Fold change /veh IL23R (11737362_x_at) / RFU TMEM51 (11727254_a_at) / Fold change /veh TMEM51 (11727254_a_at) / RFU PIWIL2 (11732686_x_at) / Fold change /veh PIWIL2 (11732686_x_at) / RFU ORM1 (11744905_x_at) / Fold change /veh ORM1 (11744905_x_at) / RFU CCDC152 (11743942_at) / Fold change /veh CCDC152 (11743942_at) / RFU ECM1 (11717891_a_at) / Fold change /veh ECM1 (11717891_a_at) / RFU IL23R (11748794_a_at) / Fold change /veh IL23R (11748794_a_at) / RFU TNFAIP8L3 (11732012_x_at) / Fold change /veh TNFAIP8L3 (11732012_x_at) / RFU MBOAT4 (11741988_at) / Fold change /veh MBOAT4 (11741988_at) / RFU 11764193_at / Fold change /veh 11764193_at / RFU TMEM53 (11763286_at) / Fold change /veh TMEM53 (11763286_at) / RFU MAGEB2 (11727129_at) / Fold change /veh MAGEB2 (11727129_at) / RFU TMEM200A (11744735_a_at) / Fold change /veh TMEM200A (11744735_a_at) / RFU CCDC152 (11751479_a_at) / Fold change /veh CCDC152 (11751479_a_at) / RFU FAM211A (11726209_a_at) / Fold change /veh FAM211A (11726209_a_at) / RFU RGS16 (11746705_a_at) / Fold change /veh RGS16 (11746705_a_at) / RFU VCAN (11755009_s_at) / Fold change /veh VCAN (11755009_s_at) / RFU RHOB (11743442_s_at) / Fold change /veh RHOB (11743442_s_at) / RFU RGS16 (11720943_a_at) / Fold change /veh RGS16 (11720943_a_at) / RFU RGS16 (11720944_at) / Fold change /veh RGS16 (11720944_at) / RFU, VPS4B / Fold change vs veh, VPS4B / RFU, CREB1 / Fold change vs veh, CREB1 / RFU, DNAJC13 / Fold change vs veh, DNAJC13 / RFU, GNAQ / Fold change vs veh, GNAQ / RFU, CDK5R1 / Fold change vs veh, CDK5R1 / RFU, ZRANB3 / Fold change vs veh, ZRANB3 / RFU, CUL4A / Fold change vs veh, CUL4A / RFU, CCNY / Fold change vs veh, CCNY / RFU, UFL1 / Fold change vs veh, UFL1 / RFU, COG3 / Fold change vs veh, COG3 / RFU, DIAPH2 / Fold change vs veh, DIAPH2 / RFU, SKA2 / Fold change vs veh, SKA2 / RFU, AFF3 / Fold change vs veh, AFF3 / RFU, LMF1 / Fold change vs veh, LMF1 / RFU, IPO11 / Fold change vs veh, IPO11 / RFU, DFFB / Fold change vs veh, DFFB / RFU, FOXP1 / Fold change vs veh, FOXP1 / RFU, CARD8 / Fold change vs veh, CARD8 / RFU, STRN3 / Fold change vs veh, STRN3 / RFU, ADK / Fold change vs veh, ADK / RFU, RASSF2 / Fold change vs veh, RASSF2 / RFU, WIPF1 / Fold change vs veh, WIPF1 / RFU, LARP1B / Fold change vs veh, LARP1B / RFU, RASA1 / Fold change vs veh, RASA1 / RFU, RB1 / Fold change vs veh, RB1 / RFU, PPFIA1 / Fold change vs veh, PPFIA1 / RFU, MAT2A / Fold change vs veh, MAT2A / RFU, CCT5 / Fold change vs veh, CCT5 / RFU, WDR92 / Fold change vs veh, WDR92 / RFU, CUX1 / Fold change vs veh, CUX1 / RFU, TTC7A / Fold change vs veh, TTC7A / RFU, TMEM135 / Fold change vs veh, TMEM135 / RFU, DEPTOR / Fold change vs veh, DEPTOR / RFU, CPM / Fold change vs veh, CPM / RFU, DNAJB6 / Fold change vs veh, DNAJB6 / RFU, CACNA2D3 / Fold change vs veh, CACNA2D3 / RFU, DTX4 / Fold change vs veh, DTX4 / RFU, TFCP2 / Fold change vs veh, TFCP2 / RFU, GMCL1 /// GMCL1P1 / Fold change vs veh, GMCL1 /// GMCL1P1 / RFU, AEBP2 / Fold change vs veh, AEBP2 / RFU, SNHG1 /// SNORD22 /// SNORD25 /// SNORD26 /// SNORD27 /// SNORD28 /// SNORD29 /// SNORD31 / Fold change vs veh, SNHG1 /// SNORD22 /// SNORD25 /// SNORD26 /// SNORD27 /// SNORD28 /// SNORD29 /// SNORD31 / Fold change (Aza/veh), C12orf56 (ProbeSet 11735607_a_at) / Fold change (ACY-1035/veh), C12orf56 (ProbeSet 11735607_a_at) / Fold change (Aza/veh), FGFR1OP (ProbeSet 11751329_s_at) / Fold change (ACY-1035/veh), FGFR1OP (ProbeSet 11751329_s_at) / Fold change (Aza/veh), VPS36 (ProbeSet 11739960_a_at) / Fold change (ACY-1035/veh), VPS36 (ProbeSet 11739960_a_at) / RFU SYPL1 (11715823_x_at) / Fold change /veh SYPL1 (11715823_x_at) / RFU IGFBP7 (11715501_s_at) / Fold change /veh IGFBP7 (11715501_s_at) / RFU REEP3 (11722064_at) / Fold change /veh REEP3 (11722064_at) / RFU IGLL1 (11728026_x_at) / Fold change /veh IGLL1 (11728026_x_at): dose or concentration left out as unconfirmed
# Conditions: MV-4-11 cells, 48 hours
smiles,measurement,value
Nc1ccc(-c2cccs2)cc1NC(=O)c1ccc2c(c1)cc(C1CC1)n2CCN1CCOCC1 [ACY-1035],Fold change /veh KRTAP5-7 /// NADSYN1 (11734609_at),0.96
